Assays:
nAChRs on LUHMES neurons [1] = assay: Desensitization of nAChR agonist-evoked [Ca2+]i responses of LUHMES neurons; assay type: cell-based, human; conditions: pretreatment […], 3 µM nicotine
Experimental: (§1) Ca^2+-imaging was performed using HT Functional Drug Screening System FDSS/µCELL (Hamamatsu Photonics) at nominal 37 °C. The FDSS/µCell system enables the indirect recording of changes of [Ca^2+]i via a Ca^2+-sensitive fluorescent dye. The fluorescence signal of a complete 384-well plate is acquired at once with a high-speed and high-sensitivity digital ImagEM X2 EM-CCD camera (Electron Multiplying Charge-Coupled Device, Hamamatsu Photonics), but with limited spatial resolution. Therefore, the software only determines the mean fluorescence signal of each well rather than of individual cells. For compound application, the integrated dispenser head with 384 pipette tips was used, which can add the test compound to all wells simultaneously. Cells were preincubated with Cal-520 AM (AAT Bioquest) at a concentration of 1 µM for 1 h at 37 °C. For recording, the medium was exchanged by a buffer solution containing [mM]: 135 NaCl, 5 KCl, 0.2 MgCl2, 2.5 CaCl2, 10 HEPES, and 10 D-glucose, pH 7.4. Test compound application was executed after obtaining a 1.5 min baseline recording. Where applicable, a second application was executed 4.5 min after the first application. The total recording never exceeded 8 min.
(§2) For the high-throughput Ca^2+-imaging data obtained in LUHMES cells, an offset correction using the FDSS software (version 3.2) was performed. Afterward, the data were exported and further analyzed with scripts written in R (version 3.6.3) (R Core Team [2020]). The concentration–response curves were fitted using a log-logistic model described by Ritz et al. ([2015]), utilizing the R package drc with its function drm() and LL2.2() with the following equation: f(x) = d/[1 + exp(b(log(x) − ẽ))] (Ritz et al. [2015]). The logarithm of the half-maximal effective concentration (logEC50) between 0 and the upper limit (d), which was set to 1, is represented by ẽ, x denotes the concentration, and b stands for the slope parameter (Ritz et al. [2015]). In cases with normalizations to responses induced by other compounds, the function LL2.3() was used with a variable upper limit (d; Ritz et al. [2015]). The same equation was used to determine the half-maximal inhibitory concentration (logIC50). Then the logEC50 and logIC50 values were converted into the pIC50 and pEC50 values, which are the negative logarithms to base 10.
Fig. 4 Desensitizing effects of DN-IMI and IMI-olefin on nAChRs. LUHMES neurons differentiated in 384-well plates were pretreated with various concentrations of DN-IMI or IMI-olefin for 4.5 min before different nAChR agonists were applied and [Ca^2+]i signals were recorded. […] Note the treatment scheme (upper right corner), illustrating the experimental design. […] Note the treatment scheme (upper right corner), illustrating the experimental design. Detailed data on n numbers are found in Table S6

human α7 nAChR = biological target: T1, human α7 nAChR (Homo sapiens, UniProt P36544); assay: Two-electrode voltage-clamp recordings, Xenopus laevis oocytes expressing human α7 nAChR; assay type: cell-based; conditions: for inward currents: tested up to 100 µM range
T1 construct: expressed in transfected cells; host or cells: Xenopus laevis oocytes, injection of 30 ng mRNA (pCDNA3.1, T7 transcript)
T1 sequence (P36544 23-502): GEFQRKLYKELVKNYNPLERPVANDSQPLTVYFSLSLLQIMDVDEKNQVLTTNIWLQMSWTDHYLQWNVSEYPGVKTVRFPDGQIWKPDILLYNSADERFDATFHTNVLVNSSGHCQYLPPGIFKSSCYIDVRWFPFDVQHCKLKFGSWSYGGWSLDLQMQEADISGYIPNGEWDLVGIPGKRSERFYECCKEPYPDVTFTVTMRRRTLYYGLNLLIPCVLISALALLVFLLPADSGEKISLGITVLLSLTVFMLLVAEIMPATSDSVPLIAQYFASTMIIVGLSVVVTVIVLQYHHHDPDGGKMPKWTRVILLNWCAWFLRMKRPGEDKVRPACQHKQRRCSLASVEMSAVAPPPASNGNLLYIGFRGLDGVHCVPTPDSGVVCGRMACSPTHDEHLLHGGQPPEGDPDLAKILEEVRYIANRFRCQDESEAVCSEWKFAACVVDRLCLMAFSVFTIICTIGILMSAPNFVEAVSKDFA

nAChRs on LUHMES neurons [2] = assay: High-throughput Ca2+-imaging of LUHMES neurons (agonist effect); assay type: cell-based, human
Experimental: For Ca^2+-imaging, the cells were pre-differentiated for 48 h in cell culture flasks, detached and plated at a density of 20,000 cells and 30,000 cells per well on 0.1% PEI-coated 384-well and 96-well plates (Greiner Bio-One), respectively, for the Ca^2+-imaging. The cells were further differentiated for another 7 days. 50% of the medium was exchanged every 2–3 days.
as §1, §2

mice = conditions: ref Chao and Casida [1997], cited from earlier work
nAChRs on SH-SY5Y cells = assay: Inhibition of DN-IMI-evoked [Ca2+]i response of SH-SY5Y cells by mecamylamine; assay type: cell-based, human; conditions: Mec 125 µM, presence of PNU (10 µM)
nAChRs on LUHMES neurons [3] = assay: Inhibition of DN-IMI-evoked [Ca2+]i responses of LUHMES neurons by nAChR antagonists; assay type: cell-based, human; conditions: for pIC50 for inhibition of DN-IMI-induced [Ca2+]i response: antagonist pretreatment, DN-IMI 0.5 µM
Experimental: as §1, §2
LUHMES neurons differentiated in 384-well plates were pretreated with various concentrations of nAChR antagonists before DN-IMI (0.5 µM) was applied in Ca^2+-imaging experiments. […] Note the treatment scheme (upper right corner), illustrating the experimental design. […] Detailed data on n numbers are found in Table S6

human α3β2 nAChRs = system: human α3β2 nAChRs; set-up: method as in Chavez-Noriega et al. [2000]; conditions: ref Chavez-Noriega et al. [2000]; cited from earlier work
human α4β2 (HS) nAChR = biological target: T2, human α4β2 (HS) nAChR (Homo sapiens, UniProt P17787+P43681); assay: Two-electrode voltage-clamp recordings, Xenopus laevis oocytes expressing human α4β2 (HS) nAChR; assay type: cell-based
T2 construct: expressed in transfected cells; host or cells: Xenopus laevis oocytes (EcoCyte Bioscience), mRNA injection, 3 ng α4 and 30 ng β2
T2 sequence (P43681 27-627): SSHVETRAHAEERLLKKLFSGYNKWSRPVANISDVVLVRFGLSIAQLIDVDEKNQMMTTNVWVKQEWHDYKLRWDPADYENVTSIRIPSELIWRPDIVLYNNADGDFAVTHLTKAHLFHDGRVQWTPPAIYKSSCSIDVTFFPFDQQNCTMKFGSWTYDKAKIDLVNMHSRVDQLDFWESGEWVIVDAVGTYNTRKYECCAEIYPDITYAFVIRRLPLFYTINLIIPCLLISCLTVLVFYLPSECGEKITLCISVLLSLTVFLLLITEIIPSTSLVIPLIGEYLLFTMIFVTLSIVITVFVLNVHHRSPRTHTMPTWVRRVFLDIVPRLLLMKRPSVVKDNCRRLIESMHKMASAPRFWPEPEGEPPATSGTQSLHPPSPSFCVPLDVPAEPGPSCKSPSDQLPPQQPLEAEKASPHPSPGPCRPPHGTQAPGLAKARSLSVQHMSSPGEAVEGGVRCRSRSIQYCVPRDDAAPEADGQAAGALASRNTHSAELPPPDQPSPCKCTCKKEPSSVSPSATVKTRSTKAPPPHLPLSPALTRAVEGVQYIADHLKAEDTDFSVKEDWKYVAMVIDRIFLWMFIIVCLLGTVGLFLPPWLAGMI
T2 sequence (P17787 26-502): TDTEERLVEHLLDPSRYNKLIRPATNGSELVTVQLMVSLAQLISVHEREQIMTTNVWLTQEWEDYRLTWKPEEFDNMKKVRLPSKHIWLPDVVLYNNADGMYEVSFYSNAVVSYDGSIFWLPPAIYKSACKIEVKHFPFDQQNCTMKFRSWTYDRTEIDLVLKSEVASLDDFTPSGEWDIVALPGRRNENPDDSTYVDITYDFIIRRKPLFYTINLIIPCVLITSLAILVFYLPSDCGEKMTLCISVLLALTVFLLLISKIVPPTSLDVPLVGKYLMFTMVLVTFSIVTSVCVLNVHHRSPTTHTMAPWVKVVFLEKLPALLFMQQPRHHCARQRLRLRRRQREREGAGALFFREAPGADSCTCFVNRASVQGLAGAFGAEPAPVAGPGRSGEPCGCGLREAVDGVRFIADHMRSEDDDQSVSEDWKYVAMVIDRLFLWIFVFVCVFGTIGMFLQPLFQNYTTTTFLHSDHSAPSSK

human α4β2 (LS) nAChR = biological target: T3, human α4β2 (LS) nAChR (Homo sapiens, UniProt P17787+P43681); assay: Two-electrode voltage-clamp recordings, Xenopus laevis oocytes expressing human α4β2 (LS) nAChR; assay type: cell-based; conditions: tested concentration range ≤ 100 µM
T3 construct: expressed in transfected cells; host or cells: Xenopus laevis oocytes, mRNA injection, 10 ng α4 and 1 ng β2
T3 sequence (P43681 27-627): as the sequence (P43681 27-627) above
T3 sequence (P17787 26-502): as the sequence (P17787 26-502) above
From the text: (§3) The human α7 nAChR subunit was cloned in the pCDNA3.1 vector.
(§4) For the generation of the mRNA for injection, the plasmid DNAs of α3, α4, β2, and β4 were linearized with the NotI restriction endonuclease (New England Biolabs) and the plasmid DNA of α7 was linearized with the XbaI restriction endonuclease (New England Biolabs). The mRNAs of α3, α4, β2, and β4 were generated by in vitro transcription using the mMESSAGE mMACHINE SP6 Transcription Kit (Invitrogen). For the generation of α7 mRNA, the mMESSAGE mMACHINE T7 Transcription Kit (Invitrogen) was used. For the separation of the DNA and mRNA, a phenol–chloroform extraction (Chomczynski and Sacchi [2006]) was performed. The mRNA was then obtained by ethanol precipitation from the aqueous phase; for quantification, the BioPhotometer (Eppendorf) was used.
(§5) The recordings of human α7, α3β4, α4β2, and α4β4 nAChRs expressed in Xenopus laevis oocytes (EcoCyte Bioscience) were performed in two-electrode voltage-clamp mode using the Roboocyte2 system and the corresponding software (version 1.4.1; Multi Channel Systems MCS). Prior to the recordings, the oocytes were maintained at 19 °C in modified Barth’s solution containing [mM]: 88 NaCl, 1 KCl, 0.33 Ca(NO3)2, 0.82 MgSO4, 2.4 NaHCO3, 0.41 CaCl2, 5 Tris, 100 U/ml penicillin, 100 µg/ml streptomycin, pH 7.4.
(§6) To express human α7 nAChR, we injected 50 nl of mRNA solution (30 ng mRNA) per oocyte, using the Roboinject and the corresponding software (version 1.2.1; Multi Channel Systems MCS). […]
(§7) The baseline correction of voltage-clamp oocyte recordings was performed with the Roboocyte2 + software (version 1.4.3; Multi Channel Systems MCS, Germany). The maximal current influx and further analysis were executed in scripts written in R. In the antagonist experiments with oocytes, the maximal inward current was determined for the last response of each period (control, three antagonist concentrations, and washout).

human α3β4 nAChR = biological target: T4, human α3β4 nAChR (Homo sapiens, UniProt P30926+P32297); assay: Two-electrode voltage-clamp recordings, Xenopus laevis oocytes expressing human α3β4 nAChR; assay type: cell-based
T4 construct: expressed in transfected cells; host or cells: Xenopus laevis oocytes, mRNA injection, 0.33 ng α3 and 3.33 ng β4
T4 sequence (P32297 32-505): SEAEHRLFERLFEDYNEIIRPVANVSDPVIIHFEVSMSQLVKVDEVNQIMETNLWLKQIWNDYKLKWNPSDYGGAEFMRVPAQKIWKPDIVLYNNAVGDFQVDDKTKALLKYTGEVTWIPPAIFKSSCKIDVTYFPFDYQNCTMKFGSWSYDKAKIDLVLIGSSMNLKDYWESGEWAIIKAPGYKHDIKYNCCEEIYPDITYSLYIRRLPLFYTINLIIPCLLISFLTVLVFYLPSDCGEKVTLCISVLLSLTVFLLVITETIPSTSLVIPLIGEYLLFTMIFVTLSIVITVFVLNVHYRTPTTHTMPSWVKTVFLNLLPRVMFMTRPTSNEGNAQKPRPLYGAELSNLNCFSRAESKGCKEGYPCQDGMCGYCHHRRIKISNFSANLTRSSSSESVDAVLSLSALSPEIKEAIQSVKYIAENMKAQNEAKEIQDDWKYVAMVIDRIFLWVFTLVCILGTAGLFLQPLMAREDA
T4 sequence (P30926 22-498): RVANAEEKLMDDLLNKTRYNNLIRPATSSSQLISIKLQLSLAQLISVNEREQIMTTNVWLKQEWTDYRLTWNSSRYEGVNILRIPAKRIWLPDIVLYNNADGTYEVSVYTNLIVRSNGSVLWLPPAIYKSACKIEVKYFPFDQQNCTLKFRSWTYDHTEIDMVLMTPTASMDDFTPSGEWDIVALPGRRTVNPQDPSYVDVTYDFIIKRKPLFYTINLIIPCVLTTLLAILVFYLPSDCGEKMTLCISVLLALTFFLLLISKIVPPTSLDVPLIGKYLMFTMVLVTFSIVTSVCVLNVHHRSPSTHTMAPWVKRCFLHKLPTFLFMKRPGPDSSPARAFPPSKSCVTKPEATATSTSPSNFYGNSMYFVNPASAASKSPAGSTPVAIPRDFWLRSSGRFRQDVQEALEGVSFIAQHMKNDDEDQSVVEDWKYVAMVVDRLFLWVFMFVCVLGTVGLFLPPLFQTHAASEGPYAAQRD

human α4β4 nAChR = biological target: T5, human α4β4 nAChR (Homo sapiens, UniProt P30926+P43681); assay: Two-electrode voltage-clamp recordings, Xenopus laevis oocytes expressing human α4β4 nAChR; assay type: cell-based; conditions: tested concentration range ≤ 100 µM
T5 construct: expressed in transfected cells; host or cells: Xenopus laevis oocytes, mRNA injection, 3.33 ng α4 and 3.33 ng β4
T5 sequence (P43681 27-627): as the sequence (P43681 27-627) above
T5 sequence (P30926 22-498): as the sequence (P30926 22-498) above
From the text: as §3, §4, §5, §6, §7

in vitro = conditions: human, hepatocytes
From the text: Renal clearance for DN-IMI was assumed to be governed only by passive processes, with both filtration and passive reabsorption being accounted for. Passive permeability was scaled from the predicted permeability in the intestine (Peff 0.37 10-4 cm/s) accounting for the surface area of the proximal tubules in the kidney.

nAChRs on LUHMES neurons [4] = system: nAChRs on LUHMES neurons; set-up: method as in Loser et al. [2021a]; conditions: ref Loser et al. [2021a]; cited from earlier work
[5] = from curve-fitted concentration–response data

**Q.** For `O=[N+]([O-])Nc1nccn1Cc1ccc(Cl)nc1` [IMI-olefin, imidacloprid-olefin], which “pIC50 for desensitization of the nicotine-evoked response” value (nAChRs on LUHMES neurons [1]) is on record?
**A.** 4.9

**Q.** And the inward currents (human α7 nAChR)?
**A.** significant inward currents but with a lower potency and efficacy than DN-IMI

**Q.** What about the “pEC50 of [Ca2+]i response (peak amplitude)” value (nAChRs on LUHMES neurons [2]; LUHMES neurons, absence of PNU, normalized to the maximal response stimulated by DN-IMI, tested ≤ 100 µM) of the same compound?
**A.** not reached within the measurement range

**Q.** What about the “pEC50 of [Ca2+]i response in the presence of PNU” value (nAChRs on LUHMES neurons [2]; PNU 10 µM, normalized to maximal response to IMI-olefin in presence of PNU) of the same compound?
**A.** 5.5

**Q.** And the “response as % of the maximal response to DN-IMI” value (nAChRs on LUHMES neurons [2]; at 30–100 µM)?
**A.** around 15%

**Q.** What about the lethality (mice; highest tested dose of 50 mg/kg) of the same compound?
**A.** no lethality

**Q.** Which “block of DN-IMI-induced [Ca2+]i response in SH-SY5Y” value (nAChRs on SH-SY5Y cells) does the source give for `CNC1(C)C2CCC(C2)C1(C)C` (stereo not shown) [Mec, Mecamylamine] here?
**A.** strongly blocked

**Q.** And the “pIC50 for inhibition of DN-IMI-induced [Ca2+]i response” value (shortened to “pIC50 for inhibition of DN-IMI-induced”) (nAChRs on LUHMES neurons [3])?
**A.** 6.8 ± 0.03

**Q.** And the “pIC50, literature data for human α3β2 nAChRs” value (human α3β2 nAChRs)?
**A.** 6.6

**Q.** What about the “block of DN-IMI-triggered inward current” value (human α4β2 (HS) nAChR; DN-IMI 1 µM) of the same compound?
**A.** concentration-dependently and reversibly blocked

**Q.** Which “activation of the receptor” value (human α4β2 (LS) nAChR) does the source give for `O=[N+]([O-])NC1=NCCN1Cc1ccc(Cl)nc1` [IMI, imidacloprid] here?
**A.** did not trigger a concentration-dependent activation

**Q.** And the inward currents (human α3β4 nAChR; concentration-dependent, up to 100 µM)?
**A.** small but significant inward currents

**Q.** And the inward currents (human α7 nAChR)?
**A.** significant inward currents but with a lower potency and efficacy than DN-IMI

**Q.** What about the LD50 (mice; Tomizawa et al. [2000], [2001]) of the same compound?
**A.** 35 to 50 mg/kg

**Q.** And the “activation of the receptor” value (human α4β2 (HS) nAChR; tested concentration range ≤ 100 µM)?
**A.** did not trigger a concentration-dependent activation

**Q.** And the “activation of the receptor” value (human α4β4 nAChR)?
**A.** did not trigger a concentration-dependent activation

**Q.** For `C[C@]12C=CC(=O)C=C1CC[C@@H]1[C@@H]2[C@@H](O)C[C@@]2(C)[C@H]1CC[C@]2(O)C(=O)CO` [prednisolone, reference compound], which hepatocyte CLint (in vitro) is on record?
**A.** 379 µL/min/1e6 cells

**Q.** With `CCN1C[C@]2(COC(=O)c3ccccc3N3C(=O)C[C@H](C)C3=O)CC[C@H](OC)[C@@]34[C@@H]5C[C@H]6[C@H](OC)[C@@H]5[C@](O)(C[C@@H]6OC)[C@@](O)([C@@H](OC)[C@H]23)[C@@H]14` [MLA, Methyllycaconitine, reference compound] as the compound, how does the “block of DN-IMI-triggered inward current” value (human α7 nAChR; DN-IMI 30 µM) read?
**A.** concentration-dependently and reversibly blocked

**Q.** And the “pIC50 for inhibition of DN-IMI-induced” value (nAChRs on LUHMES neurons [3])?
**A.** 6.8 ± 0.03

**Q.** With `CC[N+](CC)(CC)CCOc1ccc(/C=C/c2ccccc2)cc1` [MG 624] as the compound, how does the “pIC50 for inhibition of DN-IMI-induced” value (nAChRs on LUHMES neurons [3]) read?
**A.** 6.8 ± 0.03

**Q.** Which results are given for `COc1cc2c3cc1Oc1cc(ccc1O)C[C@@H]1c4c(cc(OC)c(O)c4Oc4ccc(cc4)C[C@@H]3N(C)CC2)CC[N+]1(C)C` [Tubo, (+)-Tubocurarine chloride pentahydrate]?
**A.** block of DN-IMI-triggered inward current (human α3β4 nAChR; DN-IMI 30 µM): concentration-dependently and reversibly blocked; pIC50 for inhibition of DN-IMI-induced [Ca2+]i response (nAChRs on LUHMES neurons [3]): 5.9; block of DN-IMI-evoked response (nAChRs on LUHMES neurons [3]; at 100 µM): completely blocked

**Q.** Which results are given for `CN1CCC[C@H]1c1cccnc1` [nicotine, (-)-Nicotine, reference compound]?
**A.** absolute EC25 (human α3β4 nAChR; [5]): 27.5 µM; estimated maximum (human α3β4 nAChR; normalized to nicotine (1 mM)): ~ 1; absolute EC25 (human α7 nAChR; [5]): 30.2 µM; estimated maximum (human α7 nAChR; normalized to nicotine (1 mM)): ~ 1; pEC50 in LUHMES neurons (nAChRs on LUHMES neurons [4]): ~ 6.0; higher potency on α4β2 (HS) nAChR than on other subtypes (human α4β2 (HS) nAChR; comparison of EC25 values, α4β2 (HS) vs α7 and α3β4): > 2 log-step; absolute EC25 (human α4β2 (HS) nAChR; [5]): 0.17 µM

**Q.** With `CC(=O)OCC[N+](C)(C)C` [ACh, Acetylcholine chloride] as the compound, how does the “pEC50 in LUHMES neurons” value (nAChRs on LUHMES neurons [4]) read?
**A.** ~ 6.0

Reference: PMC8536575, “Acute effects of the imidacloprid metabolite desnitro-imidacloprid on human nACh receptors relevant for neuronal signaling” (Archives of Toxicology, 2021)
